# Reference: US7662767B2, “Polynucleotide intercalator interceptors and inhibitors” (Materials Evolution and Development USA, Inc., priority 2000, dated 2010)
# Where “and” joins values, the source holds several entries; their conditions need not be identical. Identical values can stand only once.
# How the values were obtained:
# [1] = Optical titration (absorbance) of acridine orange with xanthines/purines, Kassoc from delta absorbance; format: binding; conditions: for enhancement of the ability of theophylline to complex AO: Kassoc relative to theophylline; for Kassoc ± S.E.: binding affinity between acridine orange (10 μM) and compound, 5 mM HEPES pH 7.0, 25±1° C., 0 = no measurable association detected; for K ± S.D.: AO-CAF, Absorbance, AO [10 μM], CAF [1-5000 μM], this study
# Description: A red spectral shift in the optical adsorption maximum of AO upon the addition of a particular xanthine, indicates the possibility of a complex being formed between the two compounds. Spectral shifts can be measured by optical titrations.
# Optical titrations (serial additions of various xanthines to a solution of AO) were performed on a Beckman DU-600 Scanning Spectrophotometer (Beckman Instrument Co., New York, N.Y.) using a 3 mL (1-cm light path) quartz cuvette containing 2.0 mL of a […]. The DU600 Spectrophotometer was blanked with 2 mL of a pH 7.0 buffered 5 mM HEPES solution over the full range of wavelengths to be scanned prior to sample analysis. This reduced the need to subtract the background absorbance from the HEPES buffer. Optical absorbance scans were performed over a wavelength range preferably from 400 nm to 550 nm. […] The 10 μM AO solution was scanned before the start of each titration series to quantitatively monitor any changes in the absorbance spectrum. Optical absorbance experiments were performed using aliquots varying in volume from 1:L to 20:L taken from prepared xanthine stock solutions (5 mM to 50 mM) and titrated into the cuvette containing 2.0 mL of the 10 μM AO solution. The solution in the cuvette was then thoroughly mixed by 10 seconds of shaking before scanning. All titrations were performed at room temperature (25±1° C.). The absorbance spectra were measured in 1 nm intervals and stored in digital form. Digitized scan data was converted to a Lotus Spreadsheet file (*.wk1) using a conversion program supplied by the manufacturer (Beckman Instruments Inc.) then imported into a Microsoft Excel 97™ Workbook file (*.xls) and saved in this format for further analysis. Spectral data for each titration was combined and expressed in graphic form (Excel™) (X-axis=wavelength in nm; Y-axis=optical absorbance) for each xanthine titrated with AO. […] Adjusted absorption values were plotted and compared to spectra from non-complexed AO. This allowed for the visualization of an expected spectral shift that occurs when AO forms a complex with a xanthine.
# The association constant, Kassoc, may be used to analyze the binding ability of modified xanthines to DNA intercalators. The association constant may be calculated based upon a differential shift in the absorbance spectrum. When the presence of the xanthine caused a spectral shift, a difference absorbance plot or delta plot was obtained. Delta plots were constructed by subtracting the adjusted absorption spectrum of AO in the presence of the xanthine from the initial spectrum of AO alone at each wavelength and for each aliquot of the titration. This procedure allowed for the creation of difference absorption values or delta absorption values. Delta absorption values obtained in this manner (Y-axis=delta absorption) were plotted against wavelength in nm (X-axis). The appearance of a single isobestic point was indicative of only two species present in solution, AO, and an AO complex. Graphic representation allowed for the selection of a wavelength with the maximum sensitivity for determining the association constant. This wavelength was characterized by the greatest positive response in delta absorbance values observed upon addition of each aliquot of xanthine to the AO solution. The AO-xanthine association or binding constant was determined by the following equilibrium expression: I+X≡IX EQUATION 1: […]
# Where I represents the intercalator (AO), X represents the interceptor molecule (xanthine), and IX represents the AO-xanthine complex, respectively.
# [2] = tested on: chicken erythrocyte nuclear chromatin; assay: Removal of acridine orange from stained chicken erythrocyte nuclear chromatin by xanthine rinse, fluorescence microscopy; conditions: slides stained with 10 mM AO; rinse with 50 mM for 10 minutes
# [3] = tested on: Drosophila salivary gland polytene chromosome; assay: Removal of DNA binding stains from polytene chromosome bands by xanthine wash; parameters: species or system Drosophila melagaster; conditions: for Degree of Stain Removal, Exposure to AM (100 mM) / Degree of Stain Removal, Exposure to CAF (100 mM): 15 minute wash, static, hydrochloride
# Description: In another implementation, giant polytene chromosomes were prepared by the squash technique from the salivary gland of Drosophila melagaster larva The salivary gland was placed on a microscope slide, squashed with a glass cover slide, fixed with acidic acid, rinsed with distilled water, and allowed to dry (kindly provided by Linda Chadwell, UTHSCSA-IBT). Three known DNA intercalators, ethidium bromide (98% purity, Aldrich Chemical Company, Milwaukee, Wis.), doxorubicin (98%, Sigma Chemnical Company, St. Louis, Mo.), and acridine orange plus the minor groove binding DNA stain Hoechst 33258 (98%, ACROS Chemical Company, NJ) were prepared in distilled water at a concentration of 1 mM (for chemical structures see FIG. 4-1, where acridine orange (3,6-bis [dimethylamino] acridine) is shown in Panel A, ethidium bromide is shown in Panel B, doxorubicin is shown in Panel C, Hoechst 33258 is shown in Panel D). The slides with prepared chromosomes were immersed in these stains for a period of 30 minutes, rinsed with distilled water, and dried at room temperature. Fluorescence microscopic analysis was conducted at λex 360 nm and photomicrographs were conducted on a Zeiss Model 63 Microscope with a xenon source fluorescent emitter. Photomicrographs were taken using Kodak Gold 35 mm ASA 1600 speed film noting the position of one individual chromosome on the slide. The stained slides were then subjected to 100 mM caffeine or 100 mM aminophylline under static conditions for a period of 15 minutes, rinsed with distilled water, then allowed to dry at room temperature. The presence of the same individual unstained chromosome in the field was confirmed by phase contrast microscopy. The chromosome was viewed again under fluorescence microscopy at […], and color recorded. Slides were re-stained by immersion in the 1 mM stain for a period of 30 minutes, rinsed with distilled water, and dried at room temperature, and the same individual chromosome was examined by fluorescence microscopy and the fluorescence color recorded.
# FIG. 4-3 depicts three photomicrographs of the same Drosophila polytene chromosome: after staining with the DNA minor groove binder Hoechst 33258 dye (Panel A), after rinsing with CAF for 15 minutes (Panel B), and a phase contrast verification of the presence of the chromosome after the CAF rinse (Panel C). Table 4-4 summarizes the results from the experiments using caffeine (CAF) and aminophylline (AM) to remove the following DNA intercalators: doxorubicin, ethidium bromide, acridine orange, and the DNA minor groove binder Hoechst 33258 from their binding sites within polytene chromosomes. […] With all DNA intercalators, the staining of chromosome bands was intense before the xanthine rinses and was again intense following re-staining.
# [4] = Table 4-2, in parentheses under compound, taken from Table 2-1
# [5] = Table 4-3, taken from Table 2-1
SMILES,enhancement of the ability of theophylline to complex AO [1] [%],"Kassoc [1, 4]","Kassoc [1, 5] [M⁻¹]",Kassoc ± S.E. [1],Kassoc ± S.E. ([1]; listed as AM) [M⁻¹],Kassoc ± S.E. ([1]; listed as aminophylline),K ± S.D. [1],K ± S.D. ([1]; listed as CAF-AO) [M⁻¹],"Kassoc ([1]; Table 2-2, Kassoc value with acridine orange (this report)) [M⁻¹]",Kassoc ± S.E. ([1]; listed as CAF) [M⁻¹],Kassoc ± S.E. ([1]; listed as CAF-AO) [M⁻¹],Kassoc ± S.E. ([1]; listed as CAP) [M⁻¹],fluorescence intensity after rinse [2],"Re-staining following Xanthine Exposure ([3]; 1 mM stain, 30 minutes)","Staining before Xanthine Exposure ([3]; 1 mM stain, 30 minutes)","Degree of Stain Removal, Exposure to AM (100 mM) [3]","Degree of Stain Removal, Exposure to CAF (100 mM) [3]","Degree of Stain Removal, Exposure to AM (100 mM) ([3]; listed as Acridine Orange)","Degree of Stain Removal, Exposure to CAF (100 mM) ([3]; listed as Acridine Orange)"
"Cn1c(=O)c2[nH]cnc2n(C)c1=O.NCCN [1,3-dimethyl xanthine ethylenediamine]",280,(596) M^−1,596,596.2 ± 6.5 M⁻¹,596,596.2 M⁻¹ and 596 M⁻¹,–,–,–,–,–,–,–,–,–,–,–,–,–
"Cn1c(=O)c2c(ncn2C)n(C)c1=O [1,3,7-trimethyl xanthine (caffeine), 1,3,7-trimethyl xanthine]",63,(256) M^−1,256,255.7 ± 4.8^c M^−1,–,–,255 ± 5 M⁻¹ and 256 ± 5 M⁻¹,~250,256,256,256,~256,reduced the fluorescence intensity to background level,–,–,–,–,–,–
"CN(C)c1ccc2cc3ccc(N(C)C)cc3nc2c1.Cl [AO, 3,6-bis[dimethylamino]acridine hydrochloride]",–,–,–,–,–,–,–,–,–,–,–,–,–,Complete,Banding,completely removed,did not completely remove the stain,Complete,Almost
